Measurements published in PMC8910432 (International Journal of Molecular Sciences, 2022).
Where two headings read alike, the source gives them in different places.

Experiments:
3CLpro [1] = biological target: T1, 3CLpro (Severe acute respiratory syndrome coronavirus 2, UniProt P0DTD1); settings: cited from earlier work; for IC50: read-out: IC50 3CLpro
3CLpro [2] = biological target: T1, 3CLpro; assay: biochemical; settings: SPR, 1:1 binding model; read-out: KD TA/3CLpro
SARS-CoV-2 3CLpro = SARS-CoV-2 3CLpro (Severe acute respiratory syndrome coronavirus 2, UniProt P0DTD1); assay: biochemical; type: biochemical; settings: for concentration from which inhibitory effect on 3CLpro activity is significant: tested 0.1 to 100 µM
3CLpro [3] = biological target: T1, 3CLpro; settings: FRET-based assay; cited from earlier work
[4] = parameters: method as in PMID 12111394, PMID 16526653; settings: ref 38, 39; cited from earlier work
3CLpro [5] = biological target: T1, 3CLpro; type: binding; settings: TA 10 to 500 µM, 30 min
3CLpro [6] = biological target: T1, 3CLpro; settings: cited from earlier work; for binding free energy of 3CLpro: ref 66
mice = settings: even at high dosages; cited from earlier work

In the case of `O=C(O[C@H]1Cc2c(O)cc(O)cc2OC1c1cc(O)c(O)c2c(=O)c(O)cc(C3Oc4cc(O)cc(O)c4C[C@H]3O)cc12)c1cc(O)c(O)c(O)c1` (stereo partly drawn) [3-isotheaflavin-3-gallate, reference compound], the IC50 (3CLpro [1]) is given as 7 µM.
In the case of `O=C(OC[C@H]1OC(OC(=O)c2cc(O)c(O)c(OC(=O)c3cc(O)c(O)c(O)c3)c2)[C@H](OC(=O)c2cc(O)c(O)c(OC(=O)c3cc(O)c(O)c(O)c3)c2)[C@@H](OC(=O)c2cc(O)c(O)c(OC(=O)c3cc(O)c(O)c(O)c3)c2)[C@@H]1OC(=O)c1cc(O)c(O)c(OC(=O)c2cc(O)c(O)c(O)c2)c1)c1cc(O)c(O)c(OC(=O)c2cc(O)c(O)c(O)c2)c1` (stereo partly drawn) [TA, 1,2,3,4,6-penta-O-{3,4-dihydroxy-5-((3,4,5-trihydroxybenzoyl)oxy)benzoyl}-D-glucopyranose], the IC50 (3CLpro [1]; lower end of literature range) is listed as 2.1 µM, the IC50 (3CLpro [1]) is listed as 3 µM and the “inhibition of 3CLpro activity” value (3CLpro [1]; ref 35, 36, 37) is listed as 100%. For the same compound, the IC50 (3CLpro [1]; upper end of literature range) was 9 µM, the Kd (3CLpro [2]) was 0.0575 µM and the “reduction of 3CLpro activity” value (SARS-CoV-2 3CLpro; at 10 µM) was “up to 95%”. For the same compound, the IC50 (SARS-CoV-2 3CLpro; this study) was 1 µM, the IC50 (3CLpro [3]) was 13.4 µM and the solubility in water [4] was “highly soluble”. For the same compound, the “TA adsorption onto 3CLpro (QCMD)” value (3CLpro [5]) was “TA adsorption is observed to increase with higher TA concentrations”.
For `O=C(OC[C@H]1O[C@@H](OC(=O)c2cc(O)c(O)c(O)c2)[C@H](O)[C@@H](OC(=O)c2cc(O)c(O)c(O)c2)[C@@H]1O)c1cc(O)c(O)c(O)c1` [TGG, 1,3,6-tri-O-galloyl-β-D-glucose], the “concentration from which inhibitory effect on 3CLpro activity is significant” value (SARS-CoV-2 3CLpro) was ≥ 50 µM.
In the case of `COc1ccc(-c2cc(=O)c3c(O)cc(O[C@@H]4O[C@H](CO[C@@H]5O[C@@H](C)[C@H](O)[C@@H](O)[C@H]5O)[C@@H](O)[C@H](O)[C@H]4O)cc3o2)cc1` [acaciin], the “free energy of the 3CLpro complex” value (3CLpro [6]; ref 67) is given as -27.61 kcal/mol.
In the case of `O=c1cc(-c2ccc(O)c(-c3c(O)cc(O)c4c(=O)cc(-c5ccc(O)cc5)oc34)c2)oc2cc(O)cc(O)c12` [amentoflavone], the “binding free energy of 3CLpro” value (3CLpro [6]) is listed as -32.14 ± 4.73 kcal/mol.
For `O=C(O[C@@H]1O[C@@H]2COC(=O)c3cc(O)c(O)c(O)c3-c3c(cc(O)c(O)c3O)C(=O)O[C@H]([C@H]1O)[C@@H]2O)c1cc(O)c(O)c(O)c1` [corilagin, β-1-O-galloyl-3,6-(R)-hexahydroxydiphenoyl-D-glucose], the “inhibition of 3CLpro activity” value (3CLpro [1]; ref 33) is given as 88%, the toxicity in mice (mice) is given as “very low toxicity” and the “concentration from which inhibitory effect on 3CLpro activity is significant” value (SARS-CoV-2 3CLpro) is given as ≥ 50 µM.
In the case of `CCC(CC)COC(=O)[C@H](C)N[P@](=O)(OC[C@H]1O[C@@](C#N)(c2ccc3c(N)ncnn23)[C@H](O)[C@@H]1O)Oc1ccccc1` [remdesivir], the “binding free energy of 3CLpro” value (3CLpro [6]) is given as -26.67 ± 3.39 kcal/mol.
In the case of `C[C@@H]1O[C@@H](OC[C@H]2O[C@@H](Oc3c(-c4ccc(O)c(O)c4)oc4cc(O)cc(O)c4c3=O)[C@H](O)[C@@H](O)[C@@H]2O)[C@H](O)[C@H](O)[C@H]1O` [rutin], the “binding free energy of 3CLpro” value (3CLpro [6]) is given as -30.96 ± 5.56 kcal/mol.
For (−)-epicatechin-3-O-gallate [ECG], the IC50 (3CLpro [1]) is listed as 0.847 ± 0.005 µM, the “MMPBSA binding free energy with 3CLpro” value (3CLpro [6]; ref 33) is listed as -41.5 ± 5.1 kcal/mol and the “MMPBSA binding free energy with 3CLpro” value (3CLpro [6]; ref 68) is listed as -46.03 ± 6.48 kcal/mol.
In the case of cyanidin-3-O-glucoside, the “MMPBSA binding free energy with 3CLpro” value (3CLpro [6]; protomer A) is listed as -50.8 kcal/mol and the “MMPBSA binding free energy with 3CLpro” value (3CLpro [6]; protomer B) is listed as -42.1 kcal/mol.
